Values joined by “and” are separate entries in the source; they are usually repeats but may differ in a detail not shown here. Identical values can stand only once.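 Compound exposure: 48 hours, 5 concentrations, 96-well plates. The concentration for 50% growth inhibition is given as GI50. Definition used: TGI = concentration required for complete inhibition of growth.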
Key:
Assay in all cases: DTP human tumour cell line panel, 48 h
SW-620 colon = tested on: SW-620 colon
HL-60(TB) leukemia = tested on: HL-60(TB) leukemia
ACHN renal = tested on: ACHN renal
SK-MEL-2 melanoma = tested on: SK-MEL-2 melanoma
LOX IMVI melanoma = tested on: LOX IMVI melanoma
SK-MEL-28 melanoma = tested on: SK-MEL-28 melanoma
SR leukemia = tested on: SR leukemia
NCI-H522 lung = tested on: NCI-H522 lung
NCI-H23 lung = tested on: NCI-H23 lung
MOLT-4 leukemia = tested on: MOLT-4 leukemia

SMILES	GI50 (SW-620 colon) [µM]	TGI (SW-620 colon) [µM]	GI50 (HL-60(TB) leukemia) [µM]	TGI (HL-60(TB) leukemia) [µM]	GI50 (ACHN renal) [µM]	TGI (ACHN renal) [µM]	GI50 (SK-MEL-2 melanoma) [µM]	TGI (SK-MEL-2 melanoma) [µM]	GI50 (LOX IMVI melanoma) [µM]	TGI (LOX IMVI melanoma) [µM]	GI50 (SK-MEL-28 melanoma)	TGI (SK-MEL-28 melanoma) [µM]	GI50 (SR leukemia) [µM]	TGI (SR leukemia) [µM]	TGI (NCI-H522 lung) [µM]	TGI (NCI-H23 lung) [µM]	TGI (MOLT-4 leukemia) [µM]	GI50 (NCI-H522 lung) [µM]	GI50 (NCI-H23 lung) [µM]	GI50 (MOLT-4 leukemia) [µM]
N#CC1C(N)=NNC12Nc1ccccc1N2 (stereo unspecified)	26.8	> 100	52.4	> 100	34.9	> 100	15.1	77.5	26.7	> 100	27.9 µM	> 100	6.4	36.8	–	–	–	–	–	–
O=C(O)c1c[nH]cc1C(=O)O	–	> 100	–	> 100	–	–	–	–	–	> 100	–	–	–	> 100	> 100	> 100	> 100	–	–	–
CC(C)[C@@H](COC(C)(C)C)N=CN1CCc2c([nH]c3ccccc23)C1	–	> 100	–	> 100	–	> 100	–	> 100	–	> 100	–	> 100	–	–	> 100	> 100	> 100	–	–	–
CC(=O)OC1C2(CC3N4C(=O)C5(CO)SSC4(CC31O)C(=O)N5C)OC(C)C(C)(C)C2=O (stereo unspecified)	< 0.01	0.0136	0.0379	–	< 0.01	0.0225	0.339	1.79	< 0.01	< 0.0121	0.0141 µM	0.0696	–	–	3.17	0.0932	0.0622	1.33	< 0.0371	< 0.0179
S=c1ssc(Sc2ccccn2)c1Cl	–	–	3.56	9.78	4.62	16.7	34.6	> 100	5.09	17	–	–	1.7	4.64	21.9	62.9	5.84	6.99	17.2	2.53
CCc1c2c(nc3cccc(N)c13)-c1cc3c(c(=O)n1C2)COC(=O)[C@]3(O)CC	0.011	> 100	0.00127	0.0182	–	–	–	–	0.00461	0.182	0.113 µM and 0.034 µM	> 100	< 0.001	–	–	–	0.15	0.00459	0.00327	< 0.001
N#Cc1ccccc1NC(=O)c1ccccc1	–	> 100	–	–	–	> 100	–	> 100	–	> 100	–	> 100	–	> 100	–	> 100	–	–	–	–
CCO[C@@H]1C2C=CC(C2)[C@H]1[N+](=O)[O-] (stereo partly specified)	–	> 100	–	> 100	–	> 100	–	> 100	–	> 100	–	> 100	–	–	> 100	> 100	> 100	–	–	–
O=C1CCC2(c3ccccc3)Nc3cc(Cl)ccc3N12 (stereo unspecified)	–	> 100	–	48.1	–	96.1	–	53.5	–	> 100	–	> 100	–	–	> 100	60.7	57.9	–	–	–
COC(=O)[C@]1(C)CCC[C@@]2(C)C1CCC1=C[C@@]3(C(C)C)CC[C@]12OO3 (stereo partly specified)	–	> 100	–	42	–	> 100	–	> 100	–	60.1	–	–	–	40.7	35.4	> 100	83.1	–	–	–
COc1ccc(-c2ccc(/C=N/n3c(COc4ccc(Cl)cc4)n[nH]c3=S)o2)c([N+](=O)[O-])c1	–	–	14.8	44.3	17.2	39.6	41.9	> 100	–	–	17.3 µM	> 100	–	–	> 100	33.7	75.4	25.7	13.8	16.5
COc1ccc2cc3n(c2c1)CCc1cc(OC)c(OC)cc1-3	–	> 100	–	> 100	–	> 100	–	> 100	–	> 100	–	> 100	–	–	> 100	> 100	> 100	–	–	–
O=c1cccccc1NCCCCCCCCCNc1cccccc1=O	–	68.2	–	24.5	–	36.2	–	46.8	–	19.1	–	–	–	45.7	52.9	74.6	24.9	–	–	–
FC(F)(F)c1ccc2nc(Nc3ccc(Cl)c(Cl)c3)c(-c3ccccc3)nc2c1	–	> 100	–	> 100	–	> 100	–	> 100	–	> 100	–	> 100	–	> 100	–	> 100	> 100	–	–	–
CN(C)C(=O)C1CCC(=C2C(=O)OC(C)(C)OC2=O)N1C (stereo unspecified)	–	> 100	–	–	–	> 100	–	> 100	–	> 100	–	> 100	–	–	> 100	> 100	> 100	–	–	–
Cc1cn2c(/C=N/N/C(N)=N\N)c(-c3ccc(Cl)c([N+](=O)[O-])c3)nc2s1	–	–	25.2	> 50	0.928	1.63	7.63	23.4	–	–	–	–	–	–	32.1	20	–	4.58	4.18	–
CCOC(=O)N1C2C=C(C)C(C3C(C)C(=O)N31)N(C(=O)c1ccccc1)O2 (stereo unspecified)	–	> 100	–	> 100	–	> 100	–	> 100	–	> 100	–	> 100	–	> 100	–	> 100	> 100	–	–	–
C[C@H](CSC(=O)c1ccccc1)C(=O)N1c2ccccc2C[C@H]1C(=O)O	–	> 100	–	> 100	–	> 100	–	–	–	–	–	> 100	–	> 100	> 100	> 100	> 100	–	–	–
Cc1cccc(C)c1NC(=O)CCCC(=O)C1CCC/C1=N\NC(=O)C(=O)NN (stereo unspecified)	–	> 100	–	> 100	–	> 100	–	> 100	–	> 100	–	> 100	–	–	–	> 100	> 100	–	–	–
CN(C)CCNC(=O)c1ccc(Cl)c2c(Nc3ccc(S(N)(=O)=O)cc3)c3ccccc3nc12	–	2.52	–	–	–	10.9	–	4	–	2.35	–	9.38	–	> 100	1.94	11.6	–	–	–	–

SMILES	GI50 (SW-620 colon) [µM]	TGI (SW-620 colon) [µM]	GI50 (HL-60(TB) leukemia) [µM]	TGI (HL-60(TB) leukemia) [µM]	GI50 (ACHN renal) [µM]	TGI (ACHN renal) [µM]	GI50 (SK-MEL-2 melanoma) [µM]	TGI (SK-MEL-2 melanoma) [µM]	GI50 (LOX IMVI melanoma) [µM]	TGI (LOX IMVI melanoma) [µM]	GI50 (SK-MEL-28 melanoma)	TGI (SK-MEL-28 melanoma) [µM]	GI50 (SR leukemia) [µM]	TGI (SR leukemia) [µM]	TGI (NCI-H522 lung) [µM]	TGI (NCI-H23 lung) [µM]	TGI (MOLT-4 leukemia) [µM]	GI50 (NCI-H522 lung) [µM]	GI50 (NCI-H23 lung) [µM]	GI50 (MOLT-4 leukemia) [µM]
CC(C)=CC(=O)CC(=O)C(=O)Nc1ccc(Cl)c(Cl)c1	–	> 100	–	> 100	–	> 100	–	> 100	–	–	–	> 100	–	> 100	> 100	> 100	> 100	–	–	–
Fc1ccc(Nc2nccc(-c3c(-c4ccc(C(F)(F)F)cc4)nn4ncccc34)n2)cc1F	> 25	> 25	> 25	> 25	> 25	> 25	–	–	> 25	> 25	> 25 µM	> 25	> 25	> 25	> 25	> 25	> 25	> 25	> 25	> 25
C/C=C(/CCCCNCCCC)[Si](C)(C)C	–	34.1	–	–	–	26.9	–	33.1	–	28.3	–	29.4	–	35.1	25.3	31.9	31.2	–	–	–
COc1cc(Oc2c(O)c(C)c(OC)c(C(C)=O)c2O)c(C(C)=O)c(O)c1C	–	> 100	–	–	–	> 100	–	–	–	> 100	–	> 100	–	> 100	77.9	94.9	–	–	–	–
C=C(C)[C@@H]1CC[C@@]2(C)[C@H]1[C@H]1CCC3[C@@]4(C)CC[C@H](O)C(C)(C)[C@@H]4CC[C@@]3(C)[C@]1(C)C[C@@H]2O (stereo partly specified)	–	> 100	–	> 100	–	> 100	–	–	–	> 100	–	> 100	–	> 100	> 100	> 100	> 100	–	–	–
CCOC(=O)N1CCN(S(=O)(=O)c2oc(-c3ccc(Cl)cc3)nc2C#N)CC1	1.69	3.75	2.14	7.15	1.76	3.15	3.96	13.8	0.573	2.02	2.12 µM	4.23	–	–	3.07	15.1	4.35	0.956	3.93	0.739
O=C1C(=O)N(C2C3CC4CC(C3)CC2C4)C(=O)C(=O)C1c1nc2ccccc2o1 (stereo unspecified)	–	> 100	–	–	–	> 100	–	> 100	–	> 100	–	> 100	–	–	–	> 100	–	–	–	–
C=CCc1ccc(O)c(-c2cc(C3Oc4c(-c5cc(CC=C)ccc5O)cc(O)cc4[C@@H]3CO)ccc2O)c1 (stereo partly specified)	–	31.1	–	38.5	–	> 100	–	45.9	–	32.3	–	76.8	–	47.7	38.7	76.4	–	–	–	–
CC1=CC(=O)C(C(C)=Nc2ccccc2Cl)C(=O)O1 (stereo unspecified)	> 100	> 100	> 100	> 100	> 100	> 100	–	–	> 100	> 100	> 100 µM	> 100	–	–	> 100	> 100	> 100	> 100	> 100	> 100
CC(=O)C1=C([O-])C(C)OC1=O.CC(=O)C1=C([O-])C(C)OC1=O.[NH-]C1CCCC[C@H]1[NH-].[Pt+4] (stereo unspecified)	8.69	> 100	16.1	> 100	73.2	> 100	> 100	> 100	96.6	> 100	43.8 µM	> 100	–	–	> 100	> 100	53.9	27.5	47.5	3.9
COc1ccc(/C=C2\CCCC3=C2NC(C)=NC3c2ccc(OC)c(OC)c2)cc1OC (stereo unspecified)	7.69	> 100	5.84	> 100	6.74	> 100	15.9	> 100	51.1	> 100	> 100 µM	> 100	1.99	> 100	–	> 100	> 100	–	28.6	24.8
Nc1nc(OCc2ccccc2)nc2[nH]ncc12	18.9	39.3	–	–	25.5	> 100	20.3	47.9	15	36.2	17 µM	35.2	5.59	30.5	> 100	32.7	> 100	25.5	15.7	24.3
CC1CC2(CC[C@@H]1O)OCCO2 (stereo partly specified)	–	> 100	–	> 100	–	–	–	> 100	–	> 100	–	–	–	–	> 100	> 100	> 100	–	–	–
CCOc1ccc(NC(=O)CC2SC(N)=NC2=O)cc1 (stereo unspecified)	–	> 100	–	> 100	–	> 100	–	> 100	–	> 100	–	> 100	–	–	–	> 100	> 100	–	–	–
O=C1CC2C(=O)N(Cc3ccccc3)C1C(S(=O)(=O)c1ccccc1)C2S(=O)(=O)c1ccccc1 (stereo unspecified)	–	1.69	–	3.51	–	3.24	–	–	–	3.32	–	3.72	–	10.5	1.38	10.7	7.72	–	–	–
CCC1CN2CCc3cc(OC)c(OC)cc3C2CC1CC1c2cc(OC)c(OC)cc2CCN1C(=O)CNC(=O)OC(C)(C)C (stereo unspecified)	–	29.1	–	17.6	–	54.4	–	33.1	–	73.6	–	61	–	–	–	56.1	23.1	–	–	–
O=C(Cc1ccccc1)N/N=C(\C1=Nc2ccc([N+](=O)[O-])cc2NC1O)C(O)c1ccc([N+](=O)[O-])cc1 (stereo unspecified)	–	> 100	–	> 100	–	> 100	–	> 100	–	> 100	–	–	–	> 100	> 100	> 100	–	–	–	–
Clc1ccc2nc(Oc3ccccc3)cnc2c1	> 100	> 100	> 100	> 100	> 100	> 100	–	–	> 100	> 100	> 100 µM	> 100	–	–	> 100	> 100	> 100	> 100	> 100	> 100
O=C(Nc1cc(Cl)c(Cl)cc1Cl)C(=O)C(C(=O)c1ccc(Cl)c(Cl)c1)C1OC(=O)c2ccccc21 (stereo unspecified)	–	38.3	–	52	–	31.7	–	28.6	–	35	–	–	–	> 100	23.3	–	> 100	–	–	–
